The subject of assay [1] is Bacteroides fragillis 262 strain, which produces CfiA metallo-β-lactamase. The assay can be described thus: Antibacterial activity (MIC) in combination with meropenem. It is filed as cell-based. The source says: Antibacterial activity of compounds of the invention in combination with the carbapenem antibiotic, meropenem, against the Bacteroides fragillis 262 strain, which produces CfiA metallo-β-lactamase:
[MIC=minimum inhibitory concentration (μg/ml)]

In assay [2] the target is B. fragilis CfiA metallo-β-lactamase (Bacteroides fragilis, UniProt P25910). As to the kind of experiment: I50 screen, nitrocefin reporter substrate. It is filed as biochemical. The following applies: 25 mM PIPES pH 7, 37° C., nitrocefin 91 μM, 5 minute preincubation, Zn2+ 100 μM; read-out: I50 against B. fragilis CfiA metallo-β-lactamase. As for the experimental part:
The inhibitory activity of the compounds of the invention was measured in 25 mM PIPES pH 7 buffer at 10 concentrations (1000, 333, 111, 37, 12.3, 4.1, 1.4, 0.46, 0.15 and 0.05 μM) at 37° C. using nitrocefin (91 μM final concentration) as the reporter substrate. The assays were performed with a 5 minute preincubation of enzyme and inhibitor and were conducted in the presence of added zinc sulphate (Zn^2+ 100 μM, final concentration). the methodology is described in detail in the following references: Payne et al (1991), J. Antimicrob. Chemother., 28:255; Payne et al (1994), Antimicrob. Agents and Chemother., 38:767.

[3] abbreviates: read-out: MIC of compound alone.

Where two headings read alike, the source gives them in different places. Bounds are passed on as bounds.

Sequence of B. fragilis CfiA metallo-β-lactamase (P25910 19-249): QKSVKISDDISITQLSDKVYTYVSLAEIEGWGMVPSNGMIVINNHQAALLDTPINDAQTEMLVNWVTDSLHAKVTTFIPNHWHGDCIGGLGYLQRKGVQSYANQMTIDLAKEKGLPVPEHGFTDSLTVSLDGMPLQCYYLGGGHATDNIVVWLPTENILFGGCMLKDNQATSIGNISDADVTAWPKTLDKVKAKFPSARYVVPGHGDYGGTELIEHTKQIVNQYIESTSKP

As to `O=C(NC(C(=O)O)c1ccc(CC2CCOC2)s1)C(CS)CCc1ccccc1` (centres unmarked) [Example 26, 2-[5-(Tetrahydrofuran-3-ylmethyl)thien-2-yl]-N-[2-(mercaptomethyl)-4-phenylbutyryl]glycine], in assay [1] (setting [3]), the MIC (commonly the lowest concentration that inhibits growth of the organism) is above 256 µg/mL.
In the case of `O=C(N[C@@H](C(=O)O)c1ccc(OCc2ccncc2)cc1)C(CS)CCc1ccccc1` (stereo partly drawn) [Example 55, N-(2'-RS-mercaptomethyl-4'-phenylbutanoyl)-p-(4-pyridylmethoxy)-D-phenylglycine], the IC50 in assay [2] is below 1000 nM.
Regarding `O=C(NC(C(=O)O)c1ccc(Cc2ccccc2)s1)C(CS)CCc1ccccc1` (racemic) [34 (more polar isomer), 2-[(5-Benzyl)thien-2-yl]-N-[2-(mercaptomethyl)-4-phenylbutyryl]glycine], the IC50 in assay [2] was below 1000 nM.
Take `C[C@@H](O)[C@H]1C(=O)N2C(C(=O)O)=C(S[C@@H]3CN[C@H](C(=O)N(C)C)C3)[C@H](C)[C@H]12` [meropenem, reference compound]: the minimum inhibitory concentration (MIC) in assay [1] (read-out: MIC of meropenem alone) was above 128 µg/mL.
For the compound `O=C(NC(C(=O)O)c1cccc(Oc2ccccc2)c1)C(CS)CCc1ccccc1` (single isomer, unassigned) [Example 4, N-(2'-mercaptomethyl-4'-phenylbutanoyl)-m-phenoxy-phenylglycine], the IC50 in assay [2] was below 1000 nM. Further, the MIC in assay [1] (setting [3]) was above 256 µg/mL.
Take `CN(C)c1ccc(COc2ccc([C@@H](NC(=O)C(CS)CCc3ccccc3)C(=O)O)cc2)cc1` (single isomer, unassigned) [Example 48, N-(2'-mercaptomethyl-4'-phenylbutanoyl)-p-(p-dimethylamino)-benzyloxy-D-phenylglycine]: the IC50 in assay [2] was below 1000 nM.
The same measure, in the same setting: under `O=C(O)c1cccc(COc2ccc([C@@H](NC(=O)C(CS)CCc3ccccc3)C(=O)O)cc2)c1` (single isomer, unassigned) [Example 50, N-(2'-mercaptomethyl-4'-phenylbutanoyl)-p-(m-carboxy)-benzyloxy-D-phenylglycine] stands below 1000 nM.
On the same count and under the same terms, under `C[n+]1cccc(COc2ccc([C@@H](NC(=O)C(CS)CCc3ccccc3)C(=O)[O-])cc2)c1` (stereo partly drawn) [Example 67, N-(2'-RS-mercaptomethyl-4'-phenylbutanoyl)-p-(N-methyl-3-pyridiniummethoxy)-D-phenylglycine] stands below 1000 nM.
On the same count and under the same terms, under `O=C(N[C@@H](C(=O)O)c1ccc(OCc2ccc(OCc3ccccc3)cc2)cc1)C(CS)CCc1ccccc1` (single isomer, unassigned) [Example 69, N-(2'-mercaptomethyl-4'-phenylbutanoyl)-p-(p-benzyloxy)-benzyloxy-D-phenylglycine] stands below 1000 nM; under `CN(C)c1ccc(CCOc2ccc([C@@H](NC(=O)C(CS)CCc3ccccc3)C(=O)O)cc2)cc1` (single isomer, unassigned) [Example 66, N-(2'-mercaptomethyl-4'-phenylbutanoyl)-p-(p-dimethylamino)-phenethyloxy-D-phenylglycine], below 1000 nM.
As for `O=C(NC(C(=O)O)c1ccc(Cc2ccccc2)s1)C(CS)CCc1ccccc1` (centres unmarked) [Example 24, 2-[(5-Benzyl)thien-2-yl]-N-[2-(mercaptomethyl)-4-phenylbutyryl]glycine], in assay [1] (setting [3]), the MIC is above 256 µg/mL.
Turning to `O=C(NC(C(=O)O)c1cccc(Oc2ccccc2)c1)C(CS)CCc1ccccc1` (single isomer, unassigned) [Example 3, N-(2'-mercaptomethyl-4'-phenylbutanoyl)-m-phenoxy-phenylglycine], the IC50 in assay [2] was below 1000 nM.
Same read-out and setting: under `O=C(N[C@@H](C(=O)O)c1ccc(OCc2cccs2)cc1)C(CS)CCc1ccccc1` (single isomer, unassigned) [Example 21, N-(2'-mercaptomethyl-4'-phenylbutanoyl)-p-(2"-thienylmethoxy)-D-phenylglycine] stands below 1000 nM; under `O=C(N[C@@H](C(=O)O)c1ccc(OCc2ccc([N+](=O)[O-])cc2)cc1)C(CS)CCc1ccccc1` (single isomer, unassigned) [Example 53, N-(2'-mercaptomethyl-4'-phenylbutanoyl)-p-(p-nitro)-benzyloxy-D-phenylglycine], below 1000 nM; under `O=C(N[C@@H](C(=O)O)c1ccc(OCc2ccccn2)cc1)C(CS)CCc1ccccc1` (stereo partly drawn) [Example 56, N-(2'-RS-mercaptomethyl-4'-phenylbutanoyl)-p-(2-pyridylmethoxy)-D-phenylglycine], below 1000 nM.
Still for that read-out and setting: under `O=C(N[C@@H](C(=O)O)c1ccc(OCc2ccccc2)cc1)C(CS)CCc1ccccc1` (single isomer, unassigned) [Example 19, N-(2'-mercaptomethyl-4'-phenylbutanoyl)-p-benzyloxy-D-phenylglycine] stands below 1000 nM.

These data come from patent publication US6156774A, “Beta-thiopropionyl-amino acid derivatives and their use as beta-lactamase inhibitors” (SmithKline Beecham P.L.C., priority 1996, dated 2000).
